Data from patent publication US12480944B2, “Detection and analysis of cells” (First Light Diagnostics, Inc., priority 2018, dated 2025).
Where two headings read alike, the source gives them in different places.

How the values were obtained:
[1] = tested on: K. oxytoca; set-up: key: previously determined antibiotic resistance (shown with “X”); “IR” = Intrinsically resistant; conditions: cited from earlier work
[2] = tested on: K. pneumoniae; set-up: key: previously determined antibiotic resistance (shown with “X”); “IR” = Intrinsically resistant; conditions: cited from earlier work
[3] = tested on: E. coli; set-up: key: previously determined antibiotic resistance (shown with “X”); “IR” = Intrinsically resistant; conditions: cited from earlier work
[4] = tested on: P. aeruginosa; set-up: key: previously determined antibiotic resistance (shown with “X”); “IR” = Intrinsically resistant; conditions: cited from earlier work
[5] = tested on: P. mirabilis; set-up: key: previously determined antibiotic resistance (shown with “X”); “IR” = Intrinsically resistant; conditions: cited from earlier work
[6] = tested on: K. pneumonaie strain in clinical urine sample BIUR0084; experiment: Automated MultiPath AST cartridge on clinical urine specimen, Example 8; type: cell-based; conditions: clinical urine BIUR0084 (K. pneumoniae), fold growth value of 2; for growth call at all antibiotic concentrations: 2 concentrations; for sensitive/resistant call by MulitPath: 4 h growth at 35° C., matched CLSI BMD
[7] = strain K. pneumoniae ATCC 13883
[8] = strain P. aeruginosa ATCC 27853

| Compound | previously determined antibiotic resistance ([1]; strain K. oxytoca CDC0028) | previously determined antibiotic resistance ([1]; strain K. oxytoca CDC0071) | previously determined antibiotic resistance ([1]; strain K. oxytoca CDC0147) | previously determined antibiotic resistance [2, 7] | previously determined antibiotic resistance ([2]; strain K. pneumoniae CDC0016) | previously determined antibiotic resistance ([2]; strain K. pneumoniae CDC0126) | previously determined antibiotic resistance ([3]; strain E. coli ATCC 25922) | previously determined antibiotic resistance [4, 8] | previously determined antibiotic resistance ([4]; strain P. aeruginosa CDC0251) | previously determined antibiotic resistance ([4]; strain P. aeruginosa CDC0253) | previously determined antibiotic resistance ([5]; strain P. mirabilis ATCC 7002) | previously determined antibiotic resistance ([5]; strain P. mirabilis CDC0029) | previously determined antibiotic resistance ([5]; strain P. mirabilis CDC0059) | previously determined antibiotic resistance ([5]; strain P. mirabilis CDC0155) | previously determined antibiotic resistance ([5]; strain P. mirabilis CDC0156) | previously determined antibiotic resistance ([5]; strain P. mirabilis CDC0159) | previously determined antibiotic resistance ([2]; strain K. pneumoniae CDC0010) | previously determined antibiotic resistance ([4]; strain P. aeruginosa CDC0105) | previously determined antibiotic resistance ([4]; strain P. aeruginosa CDC0111) | previously determined antibiotic resistance ([4]; strain P. aeruginosa CDC0242) | other results |
| --- | --- | --- | --- | --- | --- | --- | --- | --- | --- | --- | --- | --- | --- | --- | --- | --- | --- | --- | --- | --- | --- |
| O=C(O)c1cn(C2CC2)c2cc(N3CCNCC3)c(F)cc2c1=O [Ciprofloxacin] | X | X | X | X | X | X | X | X | X | X | X | X | X | X | X | X | – | – | – | – | previously determined antibiotic resistance ([2]; strain K. pneumoniae CDC0034): X; previously determined antibiotic resistance ([2]; strain K. pneumoniae CDC0076): X; previously determined antibiotic resistance ([2]; strain K. pneumoniae CDC0117): X; previously determined antibiotic resistance ([3]; strain E. coli BAA-2452): X; previously determined antibiotic resistance ([3]; strain E. coli BAA-2469): X; previously determined antibiotic resistance ([3]; strain E. coli BAA-2471): X; previously determined antibiotic resistance ([3]; strain E. coli CDC0017): X; previously determined antibiotic resistance ([3]; strain E. coli CDC0019): X; previously determined antibiotic resistance ([4]; strain P. aeruginosa CDC0259): X; previously determined antibiotic resistance ([4]; strain P. aeruginosa CDC0261): X; previously determined antibiotic resistance ([4]; strain P. aeruginosa CDC0262): X |
| Trimethoprim/Sulfamethoxazole | X | X | X | X | X | X | X | IR | IR | IR | X | X | X | X | X | X | X | IR | IR | IR | previously determined antibiotic resistance ([2]; strain K. pneumoniae CDC0107): X; previously determined antibiotic resistance ([2]; strain K. pneumoniae CDC0117): X; growth call at all antibiotic concentrations [6]: growth; sensitive/resistant call by MulitPath [6]: resistant; previously determined antibiotic resistance ([3]; strain E. coli BAA-2469): X; previously determined antibiotic resistance ([3]; strain E. coli BAA-2471): X; previously determined antibiotic resistance ([3]; strain E. coli CDC0017): X; previously determined antibiotic resistance ([3]; strain E. coli CDC0019): X; previously determined antibiotic resistance ([3]; strain E. coli CDC0084): X; previously determined antibiotic resistance ([4]; strain P. aeruginosa CDC0232): IR; previously determined antibiotic resistance ([4]; strain P. aeruginosa CDC0247): IR; previously determined antibiotic resistance ([4]; strain P. aeruginosa CDC0259): IR; previously determined antibiotic resistance ([4]; strain P. aeruginosa CDC0261): IR; previously determined antibiotic resistance ([4]; strain P. aeruginosa CDC0262): IR |
| CC(C)(O/N=C(\C(=O)N[C@@H]1C(=O)N2C(C(=O)[O-])=C(C[n+]3ccccc3)CS[C@H]12)c1csc(N)n1)C(=O)O [Ceftazidime] | X | X | X | X | X | X | X | X | X | X | X | X | X | X | X | X | X | X | X | X | previously determined antibiotic resistance ([2]; strain K. pneumoniae CDC0041): X; previously determined antibiotic resistance ([2]; strain K. pneumoniae CDC0107): X; previously determined antibiotic resistance ([2]; strain K. pneumoniae CDC0160): X; previously determined antibiotic resistance ([3]; strain E. coli CDC0020): X; previously determined antibiotic resistance ([3]; strain E. coli CDC0067): X; previously determined antibiotic resistance ([3]; strain E. coli CDC0084): X; previously determined antibiotic resistance ([3]; strain E. coli CDC0086): X; previously determined antibiotic resistance ([3]; strain E. coli CDC0350): X |
| Cc1nnc(SCC2=C(C(=O)O)N3C(=O)[C@@H](NC(=O)Cn4cnnn4)[C@H]3SC2)s1 [Cefazolin] | – | – | – | – | – | – | – | – | – | – | – | – | – | – | – | – | – | – | – | – | growth call at all antibiotic concentrations [6]: growth; sensitive/resistant call by MulitPath [6]: resistant |
| C[C@@H](O)[C@H]1C(=O)N2C(C(=O)O)=C(S[C@@H]3CN[C@H](C(=O)N(C)C)C3)[C@H](C)[C@H]12 [Meropenem] | X | X | X | X | X | – | X | – | – | – | X | X | X | X | X | X | X | X | X | X | previously determined antibiotic resistance ([2]; strain K. pneumoniae CDC0034): X; previously determined antibiotic resistance ([2]; strain K. pneumoniae CDC0043): X; previously determined antibiotic resistance ([2]; strain K. pneumoniae CDC0076): X; previously determined antibiotic resistance ([2]; strain K. pneumoniae CDC0080): X; previously determined antibiotic resistance ([3]; strain E. coli CDC0001): X; previously determined antibiotic resistance ([3]; strain E. coli CDC0006): X; previously determined antibiotic resistance ([3]; strain E. coli CDC0020): X; previously determined antibiotic resistance ([3]; strain E. coli CDC0085): X; previously determined antibiotic resistance ([3]; strain E. coli CDC0114): X; previously determined antibiotic resistance ([4]; strain P. aeruginosa CDC0232): X; previously determined antibiotic resistance ([4]; strain P. aeruginosa CDC0247): X |
